Measured values reported in patent publication US20260226048A1, “MULTI-CYCLIC IRAK AND FLT3 INHIBITING COMPOUNDS AND USES THEREOF” (CHILDREN'S HOSPITAL MEDICAL CENTER, priority 2023, published 2026).
Where two headings read alike, the source gives them in different places.

Tests used:
[1] = target: T1, IRAK1 (Homo sapiens, UniProt P51617); experiment: RBC HotSpot Kinase Assay, IRAK1; format: biochemical; conditions: isolated kinase enzyme, 33P-ATP, P81 filter-binding
T1 construct: purchased Reaction Biology (RBC HotSpot)
How it was run: (§1)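 Reactions ran in 20 mM Hepes (pH 7.5) containing 10 mM MgCl2, 1 mM EGTA, 0.1 mM Na3VO4, 2 mM DTT, 0.02 mg/ml BSA, 0.01% Brij35 and 1% DMSO, plus required cofactors. Functional activity readout on the expressible enzyme form, sometimes C-terminally truncated or lacking receptor regulatory regions.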

[2] = tested on: NF-κB-inducible SEAP reporter in THP-1-Blue NF-κB cells; experiment: NF-kB SEAP reporter assay in THP-1-Blue NF-κB cells; format: cell-based; conditions: 24 hours
Experimental: THP-1-Blue NF-κB cells (InvivoGen) carrying a stable integrated NF-κB-inducible secreted embryonic alkaline phosphatase (SEAP) reporter construct were plated at a concentration of 1×10^5 cells per well. The cells were stimulated with Pam3CSK4 (1 ng/mL) or hIL1B (1 ng/mL). After 10-20 minutes, the cells were then treated with vehicle (DMSO) or serial dilutions of the test compounds (10 doses tested for each test compound, with a 1:10 dilution series starting at 1 μM or 3 μM) with a final volume of 200 μL for 24 hours at 37° C. After 24 hours, the cells were centrifuged and 20 μL supernatant was incubated with 180 μL QUANTI-Blue reagent at 37° C. for 30-60 minutes. The levels of NF-κB-induced was measured in a microplate reader at 620 nm.

[3] = tested on: MOLM14 D835Y cells; experiment: MOLM14 D835Y cell viability assay (Cell Titer Glo); format: cell-based; conditions: Homo sapiens, MOLM-14, 48 h, cell viability, Cell Titer Glo, 48 hours; read-out: MOLM14 D835Y IC50
How it was run: (§2)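 Luminescent ATP read-out (CellTiter-Glo, 15 min room temperature) taken 48 h after compound addition. Cells were MOLM14 carrying FLT3 D835Y or F691L mutations, plated at 1000 cells per well.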

[4] = target: T2, IRAK4 (Homo sapiens, UniProt Q9NWZ3); experiment: RBC HotSpot Kinase Assay, IRAK4; format: biochemical; set-up: purchased Reaction Biology (RBC HotSpot); conditions: isolated kinase enzyme, 33P-ATP, P81 filter-binding
T2 sequence (Q9NWZ3 1-460): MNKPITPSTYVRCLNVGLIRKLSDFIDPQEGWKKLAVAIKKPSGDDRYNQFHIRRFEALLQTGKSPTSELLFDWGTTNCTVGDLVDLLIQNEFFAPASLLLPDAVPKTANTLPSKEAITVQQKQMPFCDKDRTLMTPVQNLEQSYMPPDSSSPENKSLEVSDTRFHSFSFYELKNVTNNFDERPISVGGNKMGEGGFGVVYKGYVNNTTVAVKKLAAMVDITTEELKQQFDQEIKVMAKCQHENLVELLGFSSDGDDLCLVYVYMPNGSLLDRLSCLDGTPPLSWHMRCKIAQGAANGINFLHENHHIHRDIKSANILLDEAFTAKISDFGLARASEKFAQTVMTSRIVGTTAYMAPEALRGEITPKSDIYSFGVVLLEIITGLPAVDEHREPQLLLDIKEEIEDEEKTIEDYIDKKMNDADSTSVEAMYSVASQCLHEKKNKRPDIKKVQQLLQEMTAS
How it was run: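 Radiometric filter-binding activity assay with isolated recombinant kinase (construct may be truncated or catalytic domain only) in 20 mM Hepes pH 7.5, 10 mM MgCl2, 1 mM EGTA, 2 mM DTT, 1% DMSO. Compound preincubated 20 min with kinase/substrate; reaction started with 33P-ATP, run 2 h at room temperature.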

[5] = target: T3, FLT3 (Homo sapiens, UniProt P36888); experiment: RBC HotSpot Kinase Assay, FLT3; format: biochemical; set-up: purchased Reaction Biology (RBC HotSpot); conditions: isolated kinase enzyme, 33P-ATP, P81 filter-binding
T3 sequence (P36888 27-993): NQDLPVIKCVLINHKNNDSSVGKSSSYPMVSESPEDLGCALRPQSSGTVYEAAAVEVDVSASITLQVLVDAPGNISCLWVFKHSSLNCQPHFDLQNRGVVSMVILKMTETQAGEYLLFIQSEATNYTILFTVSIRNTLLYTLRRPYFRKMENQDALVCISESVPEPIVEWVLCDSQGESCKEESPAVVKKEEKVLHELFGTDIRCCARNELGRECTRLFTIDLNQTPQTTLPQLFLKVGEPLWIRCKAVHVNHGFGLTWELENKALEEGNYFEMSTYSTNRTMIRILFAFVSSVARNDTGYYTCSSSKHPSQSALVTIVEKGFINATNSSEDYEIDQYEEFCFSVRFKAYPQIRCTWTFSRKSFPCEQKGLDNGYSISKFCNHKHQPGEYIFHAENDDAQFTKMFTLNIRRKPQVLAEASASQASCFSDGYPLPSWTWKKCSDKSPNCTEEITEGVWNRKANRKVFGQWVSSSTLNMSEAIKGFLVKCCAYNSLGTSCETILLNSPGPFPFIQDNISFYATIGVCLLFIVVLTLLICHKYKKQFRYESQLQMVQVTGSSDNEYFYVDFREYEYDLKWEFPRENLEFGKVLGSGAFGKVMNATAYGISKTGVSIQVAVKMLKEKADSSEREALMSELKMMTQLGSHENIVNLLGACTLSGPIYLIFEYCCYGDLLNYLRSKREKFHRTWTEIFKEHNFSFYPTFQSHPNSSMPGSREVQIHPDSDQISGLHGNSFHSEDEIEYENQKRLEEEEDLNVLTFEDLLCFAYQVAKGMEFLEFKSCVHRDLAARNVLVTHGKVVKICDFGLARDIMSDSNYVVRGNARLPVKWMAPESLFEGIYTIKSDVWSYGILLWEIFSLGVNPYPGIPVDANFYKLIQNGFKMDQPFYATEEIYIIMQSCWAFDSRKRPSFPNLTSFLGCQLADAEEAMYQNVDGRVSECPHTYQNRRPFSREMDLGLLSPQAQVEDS
How it was run: as §1

[6] = tested on: MOLM14 F691L cells; experiment: MOLM14 F691L cell viability assay (Cell Titer Glo); format: cell-based; conditions: Homo sapiens, MOLM-14; cell viability, Cell Titer Glo, 48 hours; read-out: MOLM14 F691L IC50
How it was run: as §2

[7] = THP-1-Blue NF-κB cells stimulated with Pam3CSK4 (1 ng/mL), read-out: NF-κB Pam3SCK4 IC50
[8] = THP-1-Blue NF-κB cells stimulated with hIL1B (1 ng/mL), read-out: NF-κB IL1B IC50

T1 sequence (P51617 whole entry): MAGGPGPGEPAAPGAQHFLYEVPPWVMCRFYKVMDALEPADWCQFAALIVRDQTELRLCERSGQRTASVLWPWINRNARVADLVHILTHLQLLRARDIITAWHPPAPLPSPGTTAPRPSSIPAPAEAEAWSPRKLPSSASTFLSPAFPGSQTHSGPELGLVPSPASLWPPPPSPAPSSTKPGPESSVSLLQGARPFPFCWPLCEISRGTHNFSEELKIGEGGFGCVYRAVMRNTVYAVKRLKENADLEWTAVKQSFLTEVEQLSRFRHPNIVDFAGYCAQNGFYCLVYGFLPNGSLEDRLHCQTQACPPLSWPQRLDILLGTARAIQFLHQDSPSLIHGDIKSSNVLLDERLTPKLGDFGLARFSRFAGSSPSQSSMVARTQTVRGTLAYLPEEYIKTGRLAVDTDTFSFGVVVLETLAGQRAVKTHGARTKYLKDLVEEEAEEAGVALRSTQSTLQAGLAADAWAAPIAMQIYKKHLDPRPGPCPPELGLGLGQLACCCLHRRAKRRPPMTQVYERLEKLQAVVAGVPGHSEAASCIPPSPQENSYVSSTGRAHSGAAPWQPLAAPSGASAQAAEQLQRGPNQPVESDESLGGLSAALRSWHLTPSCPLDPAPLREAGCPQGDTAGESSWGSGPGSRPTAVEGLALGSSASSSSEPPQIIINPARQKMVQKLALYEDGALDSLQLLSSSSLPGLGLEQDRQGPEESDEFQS

C[C@@](O)(c1ccc2ncc(-c3ccnc(N[C@H]4CNCC[C@@H]4F)n3)n2c1)C(F)(F)F (single isomer, unassigned) [Compound 27a]
IC50 [1]: 4 nM | IC50 [2, 7]: 55 nM | IC50 [2, 8]: 52 nM | IC50 [3]: 18 nM | IC50 [4]: 0.7 nM | IC50 [5]: < 0.5 nM

CC(O)(c1ccc2ncc(-c3nc(N[C@@H]4CCCNC4)ncc3F)n2c1)C(F)(F)F (single isomer, unassigned) [Compound 37a]
IC50 [1]: 2 nM | IC50 [2, 7]: 70 nM | IC50 [2, 8]: 58 nM | IC50 [3]: 32 nM | IC50 [4]: 2 nM | IC50 [5]: < 0.5 nM

COc1cc2ncc(-c3nc(N[C@@H]4CCCNC4)ncc3F)n2nc1C1CC1 [Compound 3a, (R)-4-(6-cyclopropyl-7-methoxyimidazo[1,2-b]pyridazin-3-yl)-5-fluoro-N-(piperidin-3-yl)pyrimidin-2-amine]
IC50 [1]: 2 nM | IC50 [2, 7]: 40 nM | IC50 [2, 8]: 58 nM | IC50 [3]: 1 nM | IC50 [6]: 5 nM | IC50 [4]: < 0.5 nM | IC50 [5]: < 0.5 nM

F[C@H]1CCNC[C@@H]1Nc1cncc(-c2cnc3cc(OC4CC4)c(C4CC4)nn23)n1 [Compound 13a, 6-(7-cyclopropoxy-6-cyclopropylimidazo[1,2-b]pyridazin-3-yl)-N-((3S,4S)-4-fluoropiperidin-3-yl)pyrazin-2-amine]
IC50 [1]: 55 nM | IC50 [2, 7]: 512 nM | IC50 [2, 8]: 334 nM | IC50 [3]: 115 nM | IC50 [4]: 5 nM | IC50 [5]: < 0.5 nM

COc1cc2ncc(-c3ccnc(N[C@H]4CNCC[C@@H]4F)n3)n2nc1C1CC(F)(F)C1 [Compound 19a, 4-(6-(3,3-difluorocyclobutyl)-7-methoxyimidazo[1,2-b]pyridazin-3-yl)-N-((3S,4S)-4-fluoropiperidin-3-yl)pyrimidin-2-amine]
IC50 [1]: 70 nM | IC50 [2, 7]: 701 nM | IC50 [2, 8]: 567 nM | IC50 [3]: 51 nM | IC50 [4]: 13 nM | IC50 [5]: < 0.5 nM

COc1cc2ncc(-c3nc(N[C@@H]4CCCNC4)ncc3F)n2nc1C1CC(F)(F)C1 [Compound 51a, (R)-4-(6-(3,3-difluorocyclobutyl)-7-methoxyimidazo[1,2-b]pyridazin-3-yl)-5-fluoro-N-(piperidin-3-yl)pyrimidin-2-amine]
IC50 [1]: 3 nM | IC50 [2, 7]: 136 nM | IC50 [2, 8]: 135 nM | IC50 [3]: 9 nM | IC50 [4]: 3 nM | IC50 [5]: < 0.5 nM

COc1cc2ncc(-c3nc(N[C@H]4CNCC[C@@H]4F)ncc3F)n2nc1N1CCCC1=O [Compound 108a, 1-(3-(5-fluoro-2-(((3S,4S)-4-fluoropiperidin-3-yl)amino)pyrimidin-4-yl)-7-methoxyimidazo[1,2-b]pyridazin-6-yl)pyrrolidin-2-one]
IC50 [1]: 241 nM | IC50 [3]: 80 nM | IC50 [6]: 798 nM | IC50 [4]: 57 nM | IC50 [5]: 2 nM

COc1cc2ncc(-c3ccnc(N[C@H]4CNCC[C@@H]4F)n3)n2nc1C1CCO1 (stereo partly drawn) [Compound 109a, N-((3S,4S)-4-fluoropiperidin-3-yl)-4-(7-methoxy-6-(oxetan-2-yl)imidazo[1,2-b]pyridazin-3-yl)pyrimidin-2-amine]
IC50 [1]: 239 nM | IC50 [3]: 28 nM | IC50 [6]: 318 nM | IC50 [4]: 4 nM | IC50 [5]: 1 nM

COc1cc2ncc(-c3nc(N[C@@H]4CCCNC4)ncc3F)n2nc1N1CCCS1(=O)=O [Compound 110a, (R)-2-(3-(5-fluoro-2-(piperidin-3-ylamino)pyrimidin-4-yl)-7-methoxyimidazo[1,2-b]pyridazin-6-yl)isothiazolidine 1,1-dioxide]
IC50 [1]: 23 nM | IC50 [3]: 18 nM | IC50 [6]: 113 nM | IC50 [4]: 20 nM | IC50 [5]: < 0.5 nM

Fc1cnc(N[C@H]2CNCC[C@@H]2F)nc1-c1cnc2cnc(C3COC3)cn12 [Compound 117a, 5-fluoro-N-((3S,4S)-4-fluoropiperidin-3-yl)-4-(6-(oxetan-3-yl)imidazo[1,2-a]pyrazin-3-yl)pyrimidin-2-amine]
IC50 [1]: 397 nM | IC50 [3]: 159 nM | IC50 [6]: 1590 nM | IC50 [4]: 45 nM | IC50 [5]: 3 nM

Fc1cnc(N[C@@H]2CCCNC2)nc1-c1cnc2cnc(C3COC3)cn12 [Compound 118a, (R)-5-fluoro-4-(6-(oxetan-3-yl)imidazo[1,2-a]pyrazin-3-yl)-N-(piperidin-3-yl)pyrimidin-2-amine]
IC50 [1]: 732 nM | IC50 [3]: 179 nM | IC50 [6]: 3180 nM | IC50 [4]: 155 nM | IC50 [5]: 7 nM

COc1cc2ncc(-c3nc(N[C@H]4CNC[C@@H]4F)ncc3F)n2nc1N1CCS(=O)(=O)CC1 [Compound 123a, 4-(3-(5-fluoro-2-(((3S,4S)-4-fluoropyrrolidin-3-yl)amino)pyrimidin-4-yl)-7-methoxyimidazo[1,2-b]pyridazin-6-yl)thiomorpholine 1,1-dioxide]
IC50 [1]: 43 nM | IC50 [3]: 63 nM | IC50 [6]: 1000 nM | IC50 [4]: 5 nM | IC50 [5]: < 0.5 nM

COc1cc2ncc(-c3nc(N[C@@H]4CCCNC4)ncc3F)n2nc1N1CCS(=O)(=O)CC1 [Compound 124a, (R)-4-(3-(5-fluoro-2-(piperidin-3-ylamino)pyrimidin-4-yl)-7-methoxyimidazo[1,2-b]pyridazin-6-yl)thiomorpholine 1,1-dioxide]
IC50 [1]: 123 nM | IC50 [3]: 90 nM | IC50 [6]: 1130 nM | IC50 [4]: 138 nM | IC50 [5]: 2 nM

COc1cc2ncc(-c3ccnc(N[C@H]4CNCC[C@@H]4F)n3)n2nc1[C@H]1C[C@@H](O)C1 [Compound 127a, (Cis)-3-(3-(2-(((3S,4S)-4-fluoropiperidin-3-yl)amino)pyrimidin-4-yl)-7-methoxyimidazo[1,2-b]pyridazin-6-yl)cyclobutan-1-ol]
IC50 [1]: 20 nM | IC50 [3]: 8 nM | IC50 [6]: 113 nM | IC50 [4]: < 0.5 nM | IC50 [5]: < 0.5 nM
